Reference: patent US20180008672A1, “ANTI-ACTIVIN A ANTIBODIES AND METHODS OF USE THEREOF FOR TREATING PULMONARY ARTERIAL HYPERTENSION” (Regeneron Pharmaceuticals, Inc., priority 2016, published 2018)
Marks after values point to notes of the source that are not given here.

Columns and labels:
[1] = test system: rat model of pulmonary hypertension induced by monocrotaline; assay: rat model of pulmonary hypertension induced by monocrotaline; format: in vivo, rat (Sprague Dawley)
Method: To further evaluate the effect of anti-Activin A antibodies in pulmonary arterial hypertension, a rat model of pulmonary hypertension induced by monocrotaline was used.
Six to seven week old Sprague Dawley rats were used. Rats were separated into treatment groups such that body weights were similar among different groups. Rats were subcutaneously administered either 40 mg/kg of monocrotaline or 5 mL/kg of saline at day 0. At 14 days post injection, saline-injected rats were orally dosed with PEG 400 (at 50:50 v/v, Affymetrix Inc., #19957) at 5 mL/kg daily for two weeks, and monocrotaline-injected rats were separated into 5 groups with a group (n=9) orally dosed with PEG 400 at 5 mL/kg daily for two weeks, another group (n=12) orally administered macintentan at 30 mg/kg daily for two weeks, and three groups that were both orally dosed with PEG 400 at 5 mL/kg daily for two weeks and subcutaneously treated with either anti-Activin A antibodies, H4H10430P (n=9), H4H10446P2 (n=11), or an isotype control antibody (n=10) at 40 mg/kg twice a week for two weeks.
At day 27, pulmonary artery size and right ventricular function and dimensions of the rats were assessed using a high frequency ultrasound system (Vevo 2100, VisualSonics). For the assessment, rats were anesthetized (with 1.5% isoflurane at a rate of 1.0 cc/mL of medical grade air) and their temperature was monitored with a rectal temperature probe and held at approximately 37° C. with a heated platform (Vevo 2100, Visualsonics) and a warming lamp. Both brightness-mode (B-mode) and motion-mode (M-mode) imaging were used. B-mode imaging of the rat heart in cross-section was used to determine pulmonary artery cross-sectional area (PA CSA) at the level of the pulmonary valve. […] was used to determine the pulsed wave velocity time integral (VTI), which is derived from the area under the curve of representative Doppler tracings of blood flow through the pulmonary artery. Right ventricular stroke volume (RV SV) was calculated from the product of PA CSA and VTI. Right ventricular cardiac output (RV CO) was calculated from the product of SV and heart rate (HR). M-mode imaging was used to determine right ventricular free wall (RVFW) thickness during diastole and systole. Animals were returned to their home cages before right ventricular pressure assessment.
Right ventricular pressure was subsequently assessed for all treatment groups. Rats were anesthetized with isoflurane and were kept at approximately 37° C. using a platform (Heated Hard Pad 1, Braintree Scientific) and circulating heated water pump (T/Pump Classic, Gaymar Industries). The neck area for each rat was prepared for surgery by depilating over the right common carotid artery and right jugular vein. An incision was made and the right jugular vein was isolated with care as to not damage the carotid artery and/or the Vagus nerve. A piece of 5-0 silk suture was placed under the isolated jugular vein to allow for retraction of the vessel cranially, then a 26-guage needle was used to introduce a hole into the jugular vein. A pressure catheter (Micro-tip catheter transducer SPR-1000, Millar Instruments, Inc.) was inserted into the opening of the jugular vein and advanced past the right atrium into the right ventricle. The catheter was connected to pressure/volume instrument (MPVS-300, Millar Instruments, Inc.) that measured heart rate as well as both diastolic and systolic right ventricular pressures. These parameters were digitally acquired using a data acquisition system (PowerLab 4/35, ADlnstruments). LabChart Pro 7.0 software (ADlnstruments) was used to analyze right ventricular pressures. Readings were quantified from a 60 second interval of the pressure tracing (following a 2 minute period of recording to allow for pressure stabilization). The parameters analyzed were RV diastolic and systolic pressures, heart rate and ventricular contractile function. […]

[2] = test system: long-term rat monocrotaline in vivo model; assay: long-term rat monocrotaline model, survival; design: species or system rat (Sprague Dawley); conditions: monocrotaline 40 mg/kg SC day 0; therapy from two weeks post-monocrotaline for 5 weeks; antibodies 40 mg/kg SC 2x/wk, macitentan 30 mg/kg PO daily; n=10
Method: To evaluate the survival benefit of anti-Activin A antibody in a pulmonary arterial hypertension model, a long-term rat monocrotaline in vivo model was used.
Six-to-seven week old Sprague Dawley rats were used. Rats were separated into treatment groups such that body weights were similar among different groups. Rats were subcutaneously administered either 40 mg/kg of monocrotaline or 5 mL/kg of saline at day 0. At 14 days post-injection, saline-injected rats were subcutaneously treated with saline at 5 mL/kg, twice a week for 5 weeks, unless they died prematurely.
The monocrotaline-injected rats were separated into 4 groups. One group (n=10) was orally administered macitentan at 30 mg/kg daily. A second group (n=10) was subcutaneously administered saline at 5 mL/kg twice a week. A third group (n=10) was subcutaneously treated with either an isotype control antibody, H4H6334P. A fourth group (n=10) was subcutaneously treated with the anti-Activin A antibody, H4H10446P2, at 40 mg/kg twice a week. These monocrotaline-treated rats were started on therapy at two weeks post-monocrotaline and continued for 5 weeks, unless the animal died prematurely.
Animals were monitored twice a day for signs of morbidity or mortality. Based on literature searches, 5-8 weeks after monocrotaline injection is typically a time where morbidity and mortality are likely. […]

[3] = monocrotaline 40 mg/kg SC day 0, antibodies 40 mg/kg SC 2x/wk, macitentan 30 mg/kg PO daily from day 14 for two weeks, ultrasound day 27

Compound: CCCNS(=O)(=O)Nc1ncnc(OCCOc2ncc(Br)cn2)c1-c1ccc(Br)cc1 [Macitentan]
- PA CSA (Ave ± SEM) [1, 3]: 9.458 ± 0.476** mm^2
- Right Ventricular cardiac output (Ave ± SEM) [1, 3]: 127.8 ± 11.7 mL/min
- Stroke Volume (Ave ± SEM), right ventricular [1, 3]: 371.6 ± 27.9 µL
- effect on right ventricular cardiac output (in words) ([1]; monocrotaline exposed rats): partially restored cardiac output
- effect on PA CSA (in words) ([1]; monocrotaline-injected rats, FIG. 3A): restored PA CSA to that of saline-injected rats
- effect on right ventricular stroke volume (in words) ([1]; monocrotaline-injected rats, FIG. 3B): partially restored stroke volume
- effect on right ventricular hypertrophy, Fulton Index RV/(LV+S) (in words) ([1]; monocrotaline-injected rats, FIG. 3C): did not lessen right ventricular hypertrophy
- effect on elevation of right ventricular pressures (in words) ([1]; monocrotaline-injected rats, catheter-based assessment, FIG. 3D): none of the treatment groups (Macitentan or anti-Activin A groups) showed attenuation in the elevation of right ventricular pressures
- mortality (animals that died during the study) [2]: Forty
